Laboratory results from PubChem BioAssay (NCI).
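These data come from cells grown in 96-well plates and exposed to compound for 48 hours at five concentrations. The concentration for full growth arrest is given as TGI.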

How the values were obtained:
Test in all cases: NCI-60 cell line screen, 48 h
[1] = tested on: 786-0 renal
[2] = tested on: A498 renal
[3] = tested on: A549 NSCLC
[4] = tested on: ACHN renal
[5] = tested on: BT-549 breast
[6] = tested on: CAKI-1 renal
[7] = tested on: CCRF-CEM leukemia
[8] = tested on: COLO 205 colon
[9] = tested on: DU-145 prostate
[10] = tested on: EKVX NSCLC
[11] = tested on: HCC-2998 colon
[12] = tested on: HCT-116 colon
[13] = tested on: HCT-15 colon
[14] = tested on: HL-60(TB) leukemia
[15] = tested on: HOP-62 NSCLC
[16] = tested on: HOP-92 NSCLC
[17] = tested on: HS 578T breast
[18] = tested on: HT29 colon
[19] = tested on: IGROV1 ovarian
[20] = tested on: K-562 leukemia
[21] = tested on: KM12 colon
[22] = tested on: LOX IMVI melanoma
[23] = tested on: M14 melanoma
[24] = tested on: MALME-3M melanoma
[25] = tested on: MCF7 breast
[26] = tested on: MDA-MB-231 breast
[27] = tested on: MDA-MB-435
[28] = tested on: MDA-N
[29] = tested on: MOLT-4 leukemia
[30] = tested on: NCI-H226 lung
[31] = tested on: NCI-H23 lung
[32] = tested on: NCI-H460 lung
[33] = tested on: NCI-H522 lung
[34] = tested on: NCI/ADR-RES ovarian
[35] = tested on: OVCAR-3 ovarian
[36] = tested on: OVCAR-4 ovarian
[37] = tested on: OVCAR-8 ovarian
[38] = tested on: PC-3 prostate
[39] = tested on: RPMI-8226 leukemia
[40] = tested on: RXF 393 renal
[41] = tested on: SF-268 CNS
[42] = tested on: SF-295 CNS
[43] = tested on: SF-539 CNS
[44] = tested on: SK-MEL-28 melanoma
[45] = tested on: SK-MEL-5 melanoma
[46] = tested on: SK-OV-3 ovarian
[47] = tested on: SN12C renal
[48] = tested on: SNB-19 CNS
[49] = tested on: SR leukemia
[50] = tested on: SW-620 colon
[51] = tested on: T-47D breast
[52] = tested on: TK-10 renal
[53] = tested on: U251 CNS
[54] = tested on: UACC-257 melanoma
[55] = tested on: UACC-62 melanoma
[56] = tested on: UO-31 renal

## O=[N+]([O-])/C(C(Cl)=C(Cl)Cl)=C(/Nc1ccccc1)Sc1ccccc1
[1]
  TGI: 46.5 µM
[2]
  TGI: 38.3 µM
[3]
  TGI: 50.2 µM
[4]
  TGI: 33.1 µM
[5]
  TGI: 66.9 µM
[6]
  TGI: 29.5 µM
[7]
  TGI: 36.6 µM
[8]
  TGI: 34.8 µM
[9]
  TGI: 41.4 µM
[10]
  TGI: 38 µM
[11]
  TGI: 32.8 µM
[12]
  TGI: 38.4 µM
[13]
  TGI: 41.6 µM
[14]
  TGI: 42.4 µM
[15]
  TGI: 62 µM
[16]
  TGI: 68.3 µM
[17]
  TGI: > 100 µM
[18]
  TGI: 48.7 µM
[19]
  TGI: 48.1 µM
[20]
  TGI: 41.6 µM
[21]
  TGI: 36 µM
[22]
  TGI: 30.7 µM
[23]
  TGI: 36.5 µM
[24]
  TGI: 31.8 µM
[25]
  TGI: 75.2 µM
[26]
  TGI: 37.6 µM
[27]
  TGI: 33.9 µM
[28]
  TGI: 56.3 µM
[29]
  TGI: 46.7 µM
[30]
  TGI: 40.1 µM
[31]
  TGI: 36.2 µM
[32]
  TGI: 41.6 µM
[33]
  TGI: 33.6 µM
[34]
  TGI: 78.9 µM
[35]
  TGI: 30.1 µM
[36]
  TGI: 37.3 µM
[37]
  TGI: 33.6 µM
[38]
  TGI: 34.9 µM
[39]
  TGI: 66.1 µM
[40]
  TGI: 40.3 µM
[41]
  TGI: 28.2 µM
[42]
  TGI: 47.5 µM
[43]
  TGI: 52.3 µM
[44]
  TGI: 36 µM
[45]
  TGI: 36.7 µM
[46]
  TGI: 42.9 µM
[47]
  TGI: 97.5 µM
[48]
  TGI: 34.3 µM
[49]
  TGI: 43 µM
[50]
  TGI: 51.1 µM
[51]
  TGI: 59.8 µM
[52]
  TGI: 59.8 µM
[53]
  TGI: 27.7 µM
[54]
  TGI: 35.6 µM
[55]
  TGI: 39.9 µM
[56]
  TGI: 27.5 µM
